Results taken from patent publication US20140135310A1, “SULPHONAMIDE DERIVATIVES OF ALICYCLIC AMINES FOR THE TREATMENT OF CENTRAL NERVOUS SYSTEM DISEASES” (Adamed Sp. z o.o., priority 2011, published 2014).

How the values were obtained:
[1] = target: dopaminergic receptors D2 (Homo sapiens, UniProt P14416); assay: Radioligand binding assay, dopaminergic D2 receptors; settings: binding assay, test compound 1×10^−6 M
Text: (§1) The specific ligand binding to the receptors is defined as the difference between the total binding and the non-specific binding determined in the presence of the excess of unlabelled ligand.
(§2) The results are expressed as a percent of control specific binding ((measured specific binding/control specific binding)×100) and as a percent inhibition of control specific binding (100−((measured specific binding/control specific binding)×100)) obtained in the presence of the test compounds. The specific ligand binding to the receptors is defined as the difference between the total binding and the nonspecific binding determined in the presence of an excess of unlabelled ligand. Scintillation counting was the method of detection of ligand binding. The IC50 values (concentration causing a half-maximal inhibition of control specific binding) were determined by non-linear regression analysis of the competition curves generated with mean replicate values using Hill equation curve fitting (Y=D+[(A−D)/(1+(C/C50)nH)], where Y=specific binding, D=minimum specific binding, A=maximum specific binding, C=compound concentration, C50=IC50, and nH=slope factor). This analysis was performed using a software developed at Cerep (Hill software) and validated by comparison with data generated by the commercial software SigmaPlot® 4.0 for Windows® (© 1997 by SPSS Inc.). The inhibition constants (Ki) were calculated using the Cheng Prusoff equation (Ki=IC50/(1+(L/KD)), where L=concentration of radioligand in the assay, and KD=affinity of the radioligand for the receptor). A scatchard plot was used to determine the Kd.
(§3) Experimental conditions for tests are given in Table 1, the results of tests for representative compounds are given in Tables 2a and 2b (receptors D2 and D3) and in Table 3 (receptors D4).

[2] = target: dopaminergic receptors D3 (Homo sapiens, UniProt P35462); assay: Radioligand binding assay, dopaminergic D3 receptors; settings: test compound 1×10^−6 M
dopaminergic receptors D3, sequence (P35462 whole entry): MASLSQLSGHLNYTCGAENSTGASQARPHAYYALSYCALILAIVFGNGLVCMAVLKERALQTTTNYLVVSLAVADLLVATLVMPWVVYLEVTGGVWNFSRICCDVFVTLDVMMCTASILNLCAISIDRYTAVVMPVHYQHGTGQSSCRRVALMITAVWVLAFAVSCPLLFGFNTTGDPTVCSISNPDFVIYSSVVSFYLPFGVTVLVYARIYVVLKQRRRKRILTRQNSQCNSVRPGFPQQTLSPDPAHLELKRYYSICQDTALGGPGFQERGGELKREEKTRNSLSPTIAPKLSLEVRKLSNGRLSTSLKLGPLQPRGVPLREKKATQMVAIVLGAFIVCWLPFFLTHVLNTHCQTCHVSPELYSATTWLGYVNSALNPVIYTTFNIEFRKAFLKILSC
Text: as §1, §2, §3

[3] = target: T1, 5-HT1A receptor (rat hippocampus) (Rattus norvegicus, UniProt P19327); assay: Radioligand binding assay, serotoninergic 5-HT1A receptors; settings: binding assay result in %, Table 5a;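 note: test compound at 1 µM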
T1 construct: hippocampus; from tissue; host or cells: rat hippocampus
T1 sequence (P19327 1-422): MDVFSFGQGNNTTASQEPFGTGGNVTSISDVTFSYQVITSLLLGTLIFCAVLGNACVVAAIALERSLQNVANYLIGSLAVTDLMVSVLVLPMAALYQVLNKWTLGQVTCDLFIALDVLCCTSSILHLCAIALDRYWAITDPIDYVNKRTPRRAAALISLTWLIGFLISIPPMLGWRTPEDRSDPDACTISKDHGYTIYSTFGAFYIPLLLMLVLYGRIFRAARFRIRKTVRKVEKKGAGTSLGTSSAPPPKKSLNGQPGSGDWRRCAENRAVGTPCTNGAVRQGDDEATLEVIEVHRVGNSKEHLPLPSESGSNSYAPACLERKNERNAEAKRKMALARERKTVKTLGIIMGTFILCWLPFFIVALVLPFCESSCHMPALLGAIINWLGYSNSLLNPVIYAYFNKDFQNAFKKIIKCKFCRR
Text: as §1, §2
(§4) Experimental conditions for tests are given in Table 4, and results of tests for representative compounds of the invention are given in Table 5a and 5b (receptors 5-HT1A, 5-HT2A, 5-HT6 and 5-HT7) and in Table 6 (receptors 5-HT2C).

5-HT2A receptor = target: T2, 5-HT2A receptor (Homo sapiens, UniProt P28223); assay: Radioligand binding assay, serotoninergic 5-HT2A receptors; settings: binding assay result in %, Table 5a
T2 construct: purchased PerkinElmer
T2 sequence (P28223 whole entry): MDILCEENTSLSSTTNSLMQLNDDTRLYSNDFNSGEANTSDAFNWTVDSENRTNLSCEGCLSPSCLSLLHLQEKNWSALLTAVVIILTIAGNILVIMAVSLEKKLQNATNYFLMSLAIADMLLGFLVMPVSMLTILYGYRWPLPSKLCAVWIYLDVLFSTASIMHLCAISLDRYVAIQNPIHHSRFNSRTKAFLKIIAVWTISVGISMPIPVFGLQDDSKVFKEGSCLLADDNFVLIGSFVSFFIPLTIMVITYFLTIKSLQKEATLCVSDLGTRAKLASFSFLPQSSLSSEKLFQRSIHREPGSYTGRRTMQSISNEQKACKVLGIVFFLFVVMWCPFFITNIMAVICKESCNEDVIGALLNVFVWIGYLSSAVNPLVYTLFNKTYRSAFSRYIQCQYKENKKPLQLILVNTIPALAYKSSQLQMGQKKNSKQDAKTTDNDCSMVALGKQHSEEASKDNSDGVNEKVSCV
Text: as §1, §2
5-HT2A: Bryan L. Roth. Assay Protocol Book. University of North Carolina At Chapel Hill. National Institute of Mental Health. Psychoactive Drug Screening Program. Available on-line at 31 Aug. 2008: http://pdsp.med.unc.edu/UNC-CH%20Protocol%20Book.pdf

5-HT6 receptor = target: T3, 5-HT6 receptor (Homo sapiens, UniProt P50406); assay: Radioligand binding assay, serotoninergic 5-HT6 receptors; settings: binding assay result in %, Table 5a;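 note: test compound at 1 µM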
T3 construct: purchased PerkinElmer
T3 sequence (P50406 whole entry): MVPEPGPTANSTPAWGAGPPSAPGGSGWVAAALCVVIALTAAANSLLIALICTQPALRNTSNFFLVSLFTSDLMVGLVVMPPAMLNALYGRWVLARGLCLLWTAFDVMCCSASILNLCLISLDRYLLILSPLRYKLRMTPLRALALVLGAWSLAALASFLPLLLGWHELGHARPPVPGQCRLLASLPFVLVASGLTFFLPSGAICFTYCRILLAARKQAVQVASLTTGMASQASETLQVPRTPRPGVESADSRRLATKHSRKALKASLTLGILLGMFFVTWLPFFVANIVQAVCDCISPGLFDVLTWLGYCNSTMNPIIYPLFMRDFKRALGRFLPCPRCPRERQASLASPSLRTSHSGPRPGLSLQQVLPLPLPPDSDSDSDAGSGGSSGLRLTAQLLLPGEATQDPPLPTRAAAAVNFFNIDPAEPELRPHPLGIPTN
Text: as §1, §2, §4
5-HT6: Bryan L. Roth. Assay Protocol Book. University of North Carolina At Chapel Hill. National Institute of Mental Health. Psychoactive Drug Screening Program. Available on-line at 31 Aug. 2008: http://pdsp.med.unc.edu/UNC-CH %20Protocol%20Book.pdf

5-HT7 receptor = target: T4, 5-HT7 receptor (Homo sapiens, UniProt P34969); assay: Radioligand binding assay, serotoninergic 5-HT7 receptors; settings: binding assay result in %, Table 5a;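 note: test compound at 1 µM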
T4 construct: purchased PerkinElmer
T4 sequence (P34969 whole entry): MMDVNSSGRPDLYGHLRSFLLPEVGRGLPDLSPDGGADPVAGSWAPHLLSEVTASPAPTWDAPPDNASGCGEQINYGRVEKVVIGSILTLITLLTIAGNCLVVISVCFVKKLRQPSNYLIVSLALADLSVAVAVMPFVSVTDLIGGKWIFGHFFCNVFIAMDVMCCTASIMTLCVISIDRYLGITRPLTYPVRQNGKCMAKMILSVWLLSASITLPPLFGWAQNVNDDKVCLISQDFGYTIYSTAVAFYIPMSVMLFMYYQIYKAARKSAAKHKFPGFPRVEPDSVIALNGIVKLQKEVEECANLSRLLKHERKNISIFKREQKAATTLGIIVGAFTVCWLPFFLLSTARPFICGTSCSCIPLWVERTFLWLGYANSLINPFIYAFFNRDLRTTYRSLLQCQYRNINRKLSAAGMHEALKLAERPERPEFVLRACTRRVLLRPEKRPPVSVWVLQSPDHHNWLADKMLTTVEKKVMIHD
Text: as §1, §2, §4
5-HT7: Bryan L. Roth. Assay Protocol Book. University of North Carolina At Chapel Hill. National Institute of Mental Health. Psychoactive Drug Screening Program. Available on-line at 31 Aug. 2008: http://pdsp.med.unc.edu/UNC-CH %20Protocol%20Book.pdf

[4] = target: T5, serotonin transporter (SERT) (Homo sapiens, UniProt P31645); assay: Radioligand binding assay, serotonin transporter (SERT); settings: binding assay, test compound 1×10^−6 M
T5 construct: expressed in transfected cells; host or cells: CHO cells
T5 sequence (P31645 whole entry): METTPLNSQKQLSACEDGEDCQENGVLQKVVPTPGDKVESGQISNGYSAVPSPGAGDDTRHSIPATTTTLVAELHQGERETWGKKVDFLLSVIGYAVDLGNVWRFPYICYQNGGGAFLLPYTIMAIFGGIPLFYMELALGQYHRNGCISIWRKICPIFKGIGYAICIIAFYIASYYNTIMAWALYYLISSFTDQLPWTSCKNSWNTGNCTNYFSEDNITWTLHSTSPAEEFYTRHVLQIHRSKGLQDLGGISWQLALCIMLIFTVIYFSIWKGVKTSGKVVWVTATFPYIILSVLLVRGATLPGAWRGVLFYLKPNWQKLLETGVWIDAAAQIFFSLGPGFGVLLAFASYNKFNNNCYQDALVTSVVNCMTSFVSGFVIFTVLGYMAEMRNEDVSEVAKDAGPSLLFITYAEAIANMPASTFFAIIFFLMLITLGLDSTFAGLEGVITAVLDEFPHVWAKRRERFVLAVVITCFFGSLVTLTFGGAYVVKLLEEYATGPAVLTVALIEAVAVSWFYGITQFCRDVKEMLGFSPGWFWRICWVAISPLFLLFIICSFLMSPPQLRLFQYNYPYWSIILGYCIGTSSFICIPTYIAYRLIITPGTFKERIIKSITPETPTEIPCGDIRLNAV
Text: as §1, §2
Experimental conditions for tests are given in Table 12, and results of tests for representative compounds are given in Tables 13a and 13b.

dopaminergic receptors D2, sequence (P14416 whole entry): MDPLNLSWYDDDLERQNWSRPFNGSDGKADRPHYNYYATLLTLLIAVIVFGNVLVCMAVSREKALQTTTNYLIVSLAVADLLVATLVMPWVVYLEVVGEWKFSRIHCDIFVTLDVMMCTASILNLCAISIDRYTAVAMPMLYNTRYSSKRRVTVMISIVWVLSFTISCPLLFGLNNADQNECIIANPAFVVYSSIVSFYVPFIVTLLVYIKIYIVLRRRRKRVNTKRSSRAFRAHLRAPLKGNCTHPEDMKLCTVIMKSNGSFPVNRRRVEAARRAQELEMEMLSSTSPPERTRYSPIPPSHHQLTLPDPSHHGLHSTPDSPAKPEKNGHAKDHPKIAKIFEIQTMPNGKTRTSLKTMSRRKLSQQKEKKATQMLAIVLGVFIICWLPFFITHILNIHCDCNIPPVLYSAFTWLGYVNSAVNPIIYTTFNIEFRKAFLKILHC

Row | Compound | inhibition at 1 µM [1] | inhibition at 1 µM [2] | inhibition at 1 µM [3] | inhibition at 1 µM (5-HT2A receptor) | inhibition at 1 µM (5-HT6 receptor) | inhibition at 1 µM (5-HT7 receptor) | inhibition at 1 µM [4] | D2 [%] [1] | D3 [%] [2] | 5-HT1A [%] [3] | 5-HT2A [%] (5-HT2A receptor) | 5-HT6 [%] (5-HT6 receptor) | 5-HT7 [%] (5-HT7 receptor) | SERT [%] [4]
1 | O=S(=O)(NCC1CCN(CCCc2noc3cc(F)ccc23)C1)c1csc2ccccc12 (stereo not drawn) [Compound 261, N-[[1-[3-(6-Fluoro-1,2-benzoxazol-3-yl)propyl]pyrrolidin-3-yl]methyl]-benzothiophene-3-sulphonamide] | 88% | 65% | 78% | 101% | 97% | 104% | 3% |  |  |  |  |  |  | 
2 | Cn1ccc2c(S(=O)(=O)NC3CCN(CCCc4noc5cc(F)ccc45)C3)cccc21 (stereo not drawn) [Compound 219, N-[1-[3-(6-Fluoro-1,2-benzoxazol-3-yl)propyl]pyrrolidin-3-yl]-1-methyl-indole-4-sulphonamide] | 96% | 81% | 85% | 99% | 94% | 96% | 52% |  |  |  |  |  |  | 
3 | O=S(=O)(NC1CCN(CCCc2noc3cc(F)ccc23)CC1)c1ccccc1 [Compound 32, N-[1-[3-(6-Fluoro-1,2-benzoxazol-3-yl)propyl]-4-piperidine]benzene-sulphonamide] |  |  |  |  |  |  |  | 63% | 57% | 37% | 83% | 63% | 92% | 5%
4 | N-[[1-[3-(6-Fluoro-1,2-benzoxazol-3-yl)propyl]pyrrolidin-3-yl]methyl]-1-methyl-indole-5-sulphonamide [Compound 258] |  |  |  |  |  |  |  | 92% | 43% | 64% | 98% | 89% | 78% | 25%
5 | Cc1ccc(S(=O)(=O)NC2CCN(CCCc3noc4cc(F)ccc34)C2)cc1 (stereo not drawn) [Compound 209, N-[1-[3-(6-Fluoro-1,2-benzoxazol-3-yl)propyl]pyrrolidin-3-yl]-4-methyl-benzenesulphonamide] | 64% | 34% | 11% | 86% | 62% | 90% | 6% |  |  |  |  |  |  | 
6 | COc1cccc(S(=O)(=O)NCC2CCN(CCCc3noc4cc(F)ccc34)C2)c1 (stereo not drawn) [Compound 250, N-[[1-[3-(6-Fluoro-1,2-benzoxazol-3-yl)propyl]pyrrolidin-3-yl]methyl]-3-methoxy-benzenesulphonamide] | 18% | 55% | 30% | 87% | 74% | 91% | 23% |  |  |  |  |  |  | 
7 | Cn1ccc2c(S(=O)(=O)NCC3CCN(CCCc4noc5cc(F)ccc45)C3)cccc21 (stereo not drawn) [Compound 259, N-[[1-[3-(6-Fluoro-1,2-benzoxazol-3-yl)propyl]pyrrolidin-3-yl]methyl]-1-methyl-indole-4-sulphonamide] | 84% | 61% | 42% | 100% | 92% | 91% | -5% |  |  |  |  |  |  | 
8 | O=S(=O)(NCC1CCN(CCCc2noc3cc(F)ccc23)C1)c1cc2ccccc2o1 (stereo not drawn) [Compound 257, N-[[1-[3-(6-Fluoro-1,2-benzoxazol-3-yl)propyl]pyrrolidin-3-yl]methyl]-benzofuran-2-sulphonamide] | 92% | 62% | 87% | 100% | 94% | 88% | 20% |  |  |  |  |  |  | 
9 | O=S(=O)(NCC1CCN(CCCc2noc3cc(F)ccc23)C1)c1ccc(Cl)cc1 (stereo not drawn) [Compound 242, 4-Chloro-N-[[1-[3-(6-fluoro-1,2-benzoxazol-3-yl)propyl]pyrrolidin-3-yl]methyl]benzenesulphonamide] | 55% | 71% | 11% | 99% | 60% | 83% | 37% |  |  |  |  |  |  | 
10 | Cc1cccc(S(=O)(=O)NCC2CN(CCCc3noc4cc(F)ccc34)C2)c1 [Compound 142, N-[[1-[3-(6-Fluoro-1,2-benzoxazol-3-yl)propyl]azetidin-3-yl]methyl]-3-methyl-benzenesulphonamide] | 58% | 45% | 29% | 77% | 37% | 87% | -4% |  |  |  |  |  |  | 
11 | O=S(=O)(NC1CCN(CCCc2noc3cc(F)ccc23)CC1)c1csc2ccccc12 [Compound 330, N-[1-[3-(6-Fluoro-1,2-benzoxazol-3-yl)propyl]-4-piperidyl]benzothiophene-3-sulphonamide] | 77% | 64% | 82% | 102% | 79% | 101% | 22% |  |  |  |  |  |  | 
12 | O=S(=O)(NCC1CCN(CCCc2noc3cc(F)ccc23)C1)c1ccc(F)c(Cl)c1 (stereo not drawn) [Compound 263, 3-Chloro-4-fluoro-N-[[1-[3-(6-fluoro-1,2-benzoxazol-3-yl)propyl]pyrrolidin-3-yl]methyl]benzenesulphonamide] | 59% | 71% | 19% | 97% | 85% | 92% | 11% |  |  |  |  |  |  | 
13 | O=S(=O)(NCC1CCN(CCCc2noc3cc(F)ccc23)C1)c1cccc(Cl)c1 (stereo not drawn) [Compound 243, 3-Chloro-N-[[1-[3-(6-fluoro-1,2-benzoxazol-3-yl)propyl]pyrrolidin-3-yl]methyl]benzenesulphonamide] | 14% | 47% | 21% | 90% | 75% | 89% | 7% |  |  |  |  |  |  | 
14 | O=S(=O)(NCC1CCN(CCCc2noc3cc(F)ccc23)C1)c1ccc2c(c1)OCO2 (stereo not drawn) [Compound 235, N-[[1-[3-(6-Fluoro-1,2-benzoxazol-3-yl)propyl]pyrrolidin-3-yl]methyl]-1,3-benzodioxole-5-sulphonamide] | 31% | 41% | 14% | 91% | 62% | 81% | 11% |  |  |  |  |  |  | 
15 | COc1cccc(S(=O)(=O)NC2CCN(CCCc3noc4cc(F)ccc34)C2)c1 (stereo not drawn) [Compound 17, N-[1-[3-(6-Fluoro-1,2-benzoxazol-3-yl)propyl]pyrrolidin-3-yl]-3-methoxybenzenesulphonamide] | 80% | 20% | 23% | 94% | 76% | 80% | 52% |  |  |  |  |  |  | 
